Test results reported in PMC5608272 (PLoS ONE, 2017).
Like-named read-outs stand apart in the source and are kept apart here.

What was measured:
Human cGAS (aa 2–522) = biological target: T1, Human cGAS (aa 2–522) (Homo sapiens, UniProt Q8N884); experiment: cGAS activity mass spectrometry assay (cGAMP production by LC-MS); type: biochemical; conditions: for effect of metals on cGAS activity: 1 nM cGAS, 1 nM dsDNA, in words; for Km: other nucleotide fixed: ATP 1 mM, GTP 300 μM, read-out: apparent Km
T1 construct: Amino acids 2-522 of human MB21D1 (Uniprot ID: Q8N884); made in house; host or cells: Spodoptera frugiperda Sf-9 (baculovirus)
T1 sequence (Q8N884 2-522): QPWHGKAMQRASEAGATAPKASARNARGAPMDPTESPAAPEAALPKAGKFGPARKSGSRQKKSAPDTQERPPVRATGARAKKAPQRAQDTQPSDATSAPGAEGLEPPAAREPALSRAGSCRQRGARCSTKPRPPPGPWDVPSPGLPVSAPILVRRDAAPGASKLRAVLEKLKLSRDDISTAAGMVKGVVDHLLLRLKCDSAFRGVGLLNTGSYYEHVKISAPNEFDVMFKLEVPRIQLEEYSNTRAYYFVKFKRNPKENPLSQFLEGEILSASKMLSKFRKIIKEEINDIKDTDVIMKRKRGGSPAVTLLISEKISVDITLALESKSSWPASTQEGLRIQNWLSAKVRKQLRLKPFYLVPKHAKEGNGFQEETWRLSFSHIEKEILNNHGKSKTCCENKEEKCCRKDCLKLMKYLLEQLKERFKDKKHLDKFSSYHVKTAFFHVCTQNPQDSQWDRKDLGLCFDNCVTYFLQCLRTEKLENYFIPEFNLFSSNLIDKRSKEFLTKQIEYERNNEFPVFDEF
Experimental: cGAS activity was measured in buffer (10 mM Hepes, 140 mM NaCl, 0.01% Tween-20, 5 mM MgCl2, pH 7.5) containing 1 mM ATP, 0.3 mM GTP, 100 nM ISD DNA (45 bp dsDNA), and 100 nM cGAS in the presence or absence of test compounds. […] The reaction was incubated for 30 minutes at 37°C and stopped with the addition of 50 mM EDTA. […] An earlier version of the assay utilized the same buffer and nucleotide conditions but was conducted in the presence of 1 nM cGAS, 1 nM ISD DNA and carried out for 6 h at 37°C before being processed as described above.
50 μl of H2O was added to each 25 μl cGAS reaction (384 well format). The samples were mixed by briefly vortexing followed by a 10 min, 3000 g centrifugation at room temperature. […] 10 μl of sample was injected on to a 2x30 mm hypercarb column (Thermo Scientific) kept at 60°C with a flow rate of 0.8 ml/min and a loop sweep time of 20 s. Mobile phase A consisted of 10 mM Ammonium Acetate, pH 10, and Mobile phase B consisted of 90:10 (Acetonitrile:Acetone 1:1): 10 mM Ammonium Acetate pH 10 + 0.1% formic acid. […] ATP and GTP had the following optimized parameters: dp 99 ep 10 ce 64 cxp 10. […] The data was processed using Sciex's Multiquant 3.0.

[1] = tested on: dsDNA-induced IFN-beta expression; experiment: Cellular cGAS assay: dsDNA-induced IFN-beta expression via luciferase reporter in THP-1 Dual cells; type: cell-based, human
Experimental: (§1) Cellular Assays. THP-1 Dual monocytes cells containing NF-κB-SEAP and IRF-Luc Reporter (InvivoGen cat # thpd-nfis) were plated at 1x10^5 cells/well in U bottom 96 well plates in 100μL RPMI media containing10% FBS. Tested compounds were diluted in 100% DMSO to stock concentration of 30 mM. The TBK1 inhibitor BX-795 was obtained from Sigma-Aldrich (cat#SML0694-5MG) and used as a positive control. Cells were pretreated with DMSO or compounds for 1 hr at room temperature, followed by Lipofectamine™ 2000 (Thermo Fisher cat# 11668027) transfection with salmon sperm DNA (InvivoGen cat# tlrl-sdef) at 100 ng/well. Cells were incubated for 12 hrs at 37 ^◦C in a 5% CO2 incubator followed by centrifugation at 1000 rpm for 5 min. Media was collected and Lucia luciferase was measured using Quanti-Luc substrate (InvivoGen cat# rep-qlc1) according to the manufacturer’s protocol. Viability of cells was assessed using Promega CellTiter Glo luminescent viability assay (Promega cat# G7570) according to the manufacturer’s protocol. All data points were normalized to the salmon sperm DNA-treated wells (without compound) and expressed as percent of signal.

mAb 80–2 = experiment: Competition ELISA, mAb 80–2 binding to BSA-cGAMP; parameters: species or system mouse; conditions: preincubated 1 hr; ATP, GTP at mM concentrations; in words
Experimental: After washing, plates were developed with substrate, the reaction was stopped with 2 N H2SO4 and OD was read at 450 nm. […] After incubation for 1 hr, plates were washed, incubated with secondary antibody, and developed as described above.

cGAS [2] = biological target: T2, cGAS (Homo sapiens, UniProt Q8N884); experiment: SPR binding to immobilized cGAS; conditions: for Kd: absence of activating dsDNA, 4 °C
Experimental: SPR assays. SPR experiments were performed using NTA sensor chips in a BIACORE T200 (GE Healthcare). cGAS was immobilized to a final density ca 5000-10000 RU. Sample-dependent responses were subtracted from channel 1, which had neither Ni or protein immobilized on it. Data were further corrected by subtracting a zero-concentratio blank from all compounds. Compounds were injected for 30-60 s, dissociation was measured for 30-120 s at 60 μL/min, 4 °C. Experiments were performed in buffer contained 20 mM HEPES (pH 7.5), 150 mM KCl, 20 mM MgCl2, 1 mM TCEP and 1% DMSO. Samples were injected with a top concentration, followed by 2-fold dilutions, and a final blank over 12 injection points. […] Dissociation equilibrium constants (KD) were determined using a binary association model (T200 BIA Eval software).
Target sequence in this assay (Q8N884 whole entry): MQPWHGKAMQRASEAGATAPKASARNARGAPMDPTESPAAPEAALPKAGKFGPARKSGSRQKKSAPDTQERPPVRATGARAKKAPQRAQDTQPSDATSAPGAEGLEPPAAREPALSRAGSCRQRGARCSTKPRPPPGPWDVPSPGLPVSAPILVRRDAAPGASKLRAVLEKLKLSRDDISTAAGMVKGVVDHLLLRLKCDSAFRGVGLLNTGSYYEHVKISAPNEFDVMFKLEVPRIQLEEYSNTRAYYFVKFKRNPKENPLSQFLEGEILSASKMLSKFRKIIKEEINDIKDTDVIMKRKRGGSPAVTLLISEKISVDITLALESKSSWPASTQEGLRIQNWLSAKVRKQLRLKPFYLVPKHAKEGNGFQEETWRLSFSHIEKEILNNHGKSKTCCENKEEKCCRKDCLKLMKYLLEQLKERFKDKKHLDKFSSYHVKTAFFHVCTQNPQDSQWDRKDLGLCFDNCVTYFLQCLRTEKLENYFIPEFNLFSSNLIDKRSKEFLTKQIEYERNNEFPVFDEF

truncated h-cGAS = biological target: T3, truncated h-cGAS (Homo sapiens, UniProt Q8N884); experiment: STD 1H NMR cGAMP competition binding on truncated h-cGAS; conditions: mixture with 2´,3´-cGAMP, in words
T3 construct: a previously crystalized cGAS construct beginning at residue 161 (cGAS161) (H. sapiens numbering)
T3 sequence (Q8N884 161-522 limits assumed): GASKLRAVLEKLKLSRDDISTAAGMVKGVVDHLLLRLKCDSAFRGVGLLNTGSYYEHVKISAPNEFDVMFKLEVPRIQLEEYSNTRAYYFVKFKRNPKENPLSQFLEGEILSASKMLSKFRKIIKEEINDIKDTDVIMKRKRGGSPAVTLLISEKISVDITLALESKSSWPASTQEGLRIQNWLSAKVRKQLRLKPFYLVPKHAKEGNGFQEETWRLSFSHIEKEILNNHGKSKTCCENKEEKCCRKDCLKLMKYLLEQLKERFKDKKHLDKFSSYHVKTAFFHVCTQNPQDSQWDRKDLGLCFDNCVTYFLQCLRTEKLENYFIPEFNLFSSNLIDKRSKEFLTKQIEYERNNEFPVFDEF
Experimental: Nuclear Magnetic Resonance (NMR). All NMR spectra were collected on a Bruker Avance III series 600 MHz spectrometer equipped with a 1.7 mm micro cryoprobe. For fragment screening, the Pfizer fragment library (~3,200 fragments) was screened against 3 μM truncated h-cGAS in 20 mM hepes (pH 7.5) buffer containing 150 mM KCl and 1 mM TCEP, and no DNA. The concentration of each fragment was 300 µM, and each sample contains either five or ten fragments in the mixture. Saturation transfer difference (STD) spectra for each fragment mixture were collected and binders were identified by comparing their STD signals with 1D reference spectra of the fragments in the mixture.

[3] = Chemical stability observed on resynthesis; type: physicochemical; conditions: upon attempted resynthesis, in words
THP-1 Dual cells = experiment: Cell viability, CellTiter Glo, THP-1 Dual cells; type: cell-based, human; conditions: in words
Experimental: as §1

cGAS [4] = biological target: T2, cGAS; experiment: Cy5-cGAMP fluorescence polarization assay of cGAS activity; type: biochemical; parameters: Amino acids 2-522 of human MB21D1 (Uniprot ID: Q8N884); made in house; host or cells: Spodoptera frugiperda Sf-9 (baculovirus)
Target sequence in this assay (Q8N884 2-522): as the sequence (Q8N884 2-522) above

[5] = 1 mM ATP, 0.3 mM GTP, 100 nM ISD DNA, 100 nM cGAS, read-out: FP IC50
[6] = 1 mM ATP, 0.3 mM GTP, 100 nM ISD DNA, 100 nM cGAS, read-out: MS IC50

With `CC(=O)[O-].CC(=O)[O-].[Pd+2]` [palladium, Pd(OAc)2] the “effect of metals on cGAS activity” value (Human cGAS (aa 2–522)) was “very sensitive to inhibition”.
`O=C(NCCCNc1nc(Nc2cccc(NC(=O)N3CCCC3)c2)ncc1I)c1cccs1` [BX-395, reference compound] gave an IC50 ([1]; Homo sapiens, THP1-Dual, positive control, read-out: IC50, inhibition of IFN-β induction) of roughly 0.06 µM.
For `Nc1ncnc2c1ncn2[C@@H]1O[C@H](COP(=O)(O)OP(=O)(O)OP(=O)(O)O)[C@@H](O)[C@H]1O` [ATP], the “inhibition of mAb 80–2 binding to BSA-cGAMP” value (mAb 80–2) was “neither ATP nor GTP at mM concentrations inhibited the binding” and the Km (Human cGAS (aa 2–522)) was 35 µM.
In the case of `[Cl-].[Cl-].[Zn+2]` [zinc, ZnCl2], the “effect of metals on cGAS activity” value (Human cGAS (aa 2–522)) is reported as “increased enzymatic activity”.
For `Oc1cc(-c2ccccc2)nc2nnnn12` [Compound 15], the Kd (cGAS [2]) was 171 µM, the “competition with 2´,3´-cGAMP for interacting with cGAS (1H STD)” value (truncated h-cGAS) was “out competed 2´,3´-cGAMP” and the chemical stability [3] was “not chemically stable and readily isomerizes via an open-ring azidopyrimidine”.
For `O=C(N[C@H]1CCCC[C@H]1C(=O)O)c1cnn2c(=O)cc(-c3ccccc3)[nH]c12` [PF-06928215, (1R,2S)-2-(7-oxo-5-phenyl-4,7-dihydropyrazolo[1,5-a]pyrimidine-3 carboxamido) cyclohexane-1-carboxylic acid], the off rate kinetics (cGAS [2]; SPR sensorgram, in words) was “longer off rate kinetics than any other compound in this series”, the “effect on cell viability” value (THP-1 Dual cells) was “minimal effect on cell viability” and the “activity on dsDNA-induced IFN-beta expression” value ([1]; salmon sperm DNA 12 hrs, in words) was “no activity”.
`CNC(=O)c1cnn2c(=O)cc(-c3ccccc3)[nH]c12` [Compound 16, N-methyl-7-oxo-5-phenyl-4,7-dihydropyrazolo[1,5-a]pyrimidine-3-carboxamide] showed a Kd (cGAS [2]) of 78 µM, an IC50 (cGAS [4]; [5]) of 125 µM and an IC50 (cGAS [4]; text summary of Fig 3, spans MS and FP assay values, read-out: IC50, inhibition of cGAS functional activity) of 69 to 125 µM. For the same compound, the IC50 (Human cGAS (aa 2–522); [6]) was 69 µM.
In the case of `Nc1nc2c(ncn2[C@@H]2O[C@H](COP(=O)(O)OP(=O)(O)OP(=O)(O)O)[C@@H](O)[C@H]2O)c(=O)[nH]1` [GTP], the “inhibition of mAb 80–2 binding to BSA-cGAMP” value (mAb 80–2) is reported as “neither ATP nor GTP at mM concentrations inhibited the binding” and the Km (Human cGAS (aa 2–522)) is reported as 30 µM.
Work on `C[C@@H](CO)NC(=O)c1cnn2c(=O)cc(-c3ccccc3)[nH]c12` [Compound 19, (S)-N-(1-hydroxypropan-2-yl)-7-oxo-5-phenyl-4,7-dihydropyrazolo[1,5-a]pyrimidine-3-carboxamide] yielded a Kd (cGAS [2]) of 2.7 µM, an IC50 (cGAS [4]; [5]) of 17.5 µM and an IC50 (Human cGAS (aa 2–522); [6]) of 8.1 µM.
With `[Cu][Br]` [copper, CuBr] the “effect of metals on cGAS activity” value (Human cGAS (aa 2–522)) was “very sensitive to inhibition”.
With `O=C(NCCO)c1cnn2c(=O)cc(-c3ccccc3)[nH]c12` [Compound 17, N-(2-hydroxyethyl)-7-oxo-5-phenyl-4,7-dihydropyrazolo[1,5-a]pyrimidine-3-carboxamide] the Kd (cGAS [2]) was 12.5 µM, the IC50 (cGAS [4]; [5]) was 15.1 µM and the IC50 (Human cGAS (aa 2–522); [6]) was 19 µM.
Work on `O=C(O)CNC(=O)c1cnn2c(=O)cc(-c3ccccc3)[nH]c12` [Compound 18, (7-oxo-5-phenyl-4,7-dihydropyrazolo[1,5-a]pyrimidine-3-carbonyl)glycine] yielded a Kd (cGAS [2]) of 6.7 µM, an IC50 (cGAS [4]) of 10.6 µM and an IC50 (Human cGAS (aa 2–522)) of 21 µM.
